# Experiments:
# [1] = test system: ob/ob mouse with induced non-alcoholic steatohepatitis; assay: AST and ALT measurement in blood, ob/ob NASH mouse model; type: in vivo; conditions: 100 mg/kg/day mixed in special diet for 10 weeks, plasma, vs. Ob-NASH, FIG. 4
# Procedure: (§1) A six-week-old male ob/ob mouse with leptin deficiency was fed with a special diet containing high fat, high fructose, and high cholesterol for 10 weeks, and thus was induced to develop non-alcoholic steatohepatitis. A mixed form of diet was prepared so that a daily dose of (3-(4-(3-(1-(5-ethylpyrimidin-2-yl)piperidin-4-yl)propoxy)-2,6-difluorophenyl)-5-isopropyl-1,2,4-oxadiazole (hereinafter, “compound 1”) reaches 100 mg/kg/day in the compound represented by the chemical formula 1, and supplied to the mouse from a time point of starting the supply of the special diet for 10 weeks.
# The mouse model with induced non-alcoholic steatohepatitis was subjected to autopsy, after which plasma was separated therefrom, so as to quantify aspartate aminotransferase (AST) and alanine aminotransferase (ALT) by using an automatic blood analyzer (Konelab 20i), and the results thereof are shown in FIG. 4.
# [2] = test system: ob/ob mouse with induced non-alcoholic steatohepatitis; assay: Histological examination of liver (HE, Masson's Trichrome / Sirius stain) in ob/ob mouse model with induced non-alcoholic steatohepatitis; type: in vivo; conditions: 100 mg/kg/day mixed in special diet for 10 weeks, vs. Ob-NASH
# Procedure: as §1
# For a histological examination, the prepared mouse model with induced non-alcoholic steatohepatitis was subjected to autopsy to fix an isolated liver tissue in 10% formalin and prepare a paraffin block, thereby obtaining a 2 μm-thick tissue section. To confirm infiltration of inflammatory cells, Hematoxylin and Eosin (HE) stain was performed using an automatic staining machine (Autostainner XL, Leica), and the results thereof are shown in FIGS. 1 and 2.
# Then, for evaluation of fibrosis, fibers in liver tissue were specifically stained by using Masson's Trichrome stain or Sirius Res stain, and the results thereof are shown in FIGS. 2 and 3.
# [3] = test system: C57BL/6J mouse with induced non-alcoholic steatohepatitis; assay: Evaluation of fibrosis (Sirius stain, type I collagen immunostaining), C57BL/6J DIO-NASH mouse model; type: in vivo; conditions: C57BL/6J DIO-NASH_Compd1, compound in special diet for eight weeks, vs. DIO-NASH; FIGS. 13 and 14
# Procedure: (§2) A six-week-old male C57BL/6J mouse was fed with a special diet comprising high fat, high fructose, and high cholesterol for at least 26 weeks, and thus was induced to develop non-alcoholic steatohepatitis. It was confirmed that fatty liver and inflammatory fibrosis are induced through a biopsy of liver tissues three weeks before drug supply, and mice were evenly distributed into each group based on the area of collagen stained in the liver tissues. A feed was prepared by mixing the compounds according to the present invention in a special diet and supplied for additional eight weeks. According to the diet supplied to the mice, each of the groups was classified as a control group fed with a normal diet (Normal), a positive control group in which mice with induced non-alcoholic steatohepatitis due to the special diet were not supplied with a drug (DIO-NASH), and a group in which mice with induced non-alcoholic steatohepatitis were supplied with the compound 1 in an amount of 30 mg/kg/day (L) and […] (H) (Cmpd1 (L) and Cmpd1 (H), respectively).
# Then, for the evaluation of fibrosis, the fibers of the liver tissues were specifically stained with Sirius Res stain in the mice of each group, and a content of type I collagen in the liver tissues was measured by an imaging analysis method after immunostaining, so that the results thereof are shown in FIGS. 13 and 14.
# [4] = test system: ob/ob mouse with induced non-alcoholic steatohepatitis; assay: Concentration of proteins associated with inflammation and fibrosis in liver tissues (ELISA), ob/ob NASH mouse model; type: in vivo; conditions: 100 mg/kg/day mixed in special diet for 10 weeks, vs. Ob-NASH, FIG. 5
# Procedure: as §1
# To evaluate an effect on the expression of inflammation-related genes and fibrosis-related proteins in liver tissues, the liver tissues obtained from the mouse model were put into RIPA buffer (Cell Signaling) and pulverized with TissueLyser II™ (Quiagen), after which a total protein concentration was quantified with Pierce BCA Protein Assay Kit (Thermo Fisher Scientific) and a protein concentration of Mouse Ccl2 (=Mcp1; R&D Systems, MJE00) and Timp1 (R&D Systems, MTM100) in the liver tissues was quantified by using a commercially available ELISA kit, so that the results thereof are shown in FIG. 5.
# [5] = test system: ob/ob mouse with induced non-alcoholic steatohepatitis; assay: Expression of genes associated with inflammation and fibrosis in liver tissues (real-time PCR), ob/ob NASH mouse model; type: in vivo; conditions: 100 mg/kg/day mixed in special diet for 10 weeks, FIG. 6
# Procedure: as §1
# To measure an expression level of inflammation-related genes and fibrosis-related genes in liver tissues, Trizol® (Invitrogen) was added to the liver tissues collected from the mouse model, after which a total RNA was extracted from the tissues according to the method provided by the manufacturer, and then cDNA was synthesized by using a reverse transcriptase. Then, a real-time polymerase chain reaction was performed in LightCycler®480 Instrument II (RocheLifeScience) equipment by using a reagent of SYBR Green I Master Mix (Roche, 04707516001), and the results thereof are shown in FIG. 6.
# [6] = test system: C57BL/6J mouse with induced non-alcoholic steatohepatitis; assay: Change in gene expression in liver tissues (RNAseq), C57BL/6J DIO-NASH mouse model; type: in vivo; conditions: C57BL/6J DIO-NASH_Compd1, eight weeks after drug administration, vs. DIO-NASH, FIG. 16
# Procedure: as §2
# To analyze a change in total gene expression in liver tissues isolated from the above mouse model in eight weeks after drug administration, the isolated RNA fraction was used to generate a library by using NeoPrep (Illumina), and subjected to RNAseq profiling through NexSeq 500 (Illumina), after which bioinformatics analysis was performed and changes in major gene groups were classified for each function, so that the results thereof are shown in FIG. 16.
# [7] = test system: C57BL/6J mouse with induced non-alcoholic steatohepatitis; assay: NAFLD activity score (NAS) before and after administration, C57BL/6J DIO-NASH mouse model; type: in vivo; conditions: compound in special diet for eight weeks, FIG. 12
# Procedure: as §2
# [8] = test system: differentiated macrophages (THP-1); assay: Effect on activation of differentiated macrophages by LPS (IL-1β secretion, ELISA); type: cell-based, human; conditions: differentiated macrophages treated with compound for 48 hours, then LPS; FIG. 9
# Procedure: (§3) Then, THP-1 monocytes were treated with PMA (50 ng/ml) for 48 hours to be differentiate into macrophages, while the compound 1 was co-treated, then replaced with serum-free medium, and then treated with lipopolysaccharides (LPS, 0.5 ng/ml) for four hours so as to quantity interleukin-1β (IL-1β, R&D Systems, DY201) secreted into the medium by using a commercialized ELISKA kit and evaluate an effect on the differentiation of monocytes, so that the results thereof are shown in FIG. 8.
# In addition, after treating the differentiated macrophages with the compound 1 for 48 hours, the secreted IL-1β was quantified by the same method as above with regard to the activation of immune cells by LPS, so as to evaluate an effect on the activation of differentiated macrophages.
# [9] = test system: C57BL/6J mouse with induced non-alcoholic steatohepatitis; assay: Histological examination (HE) and triglyceride content of liver, C57BL/6J DIO-NASH mouse model; type: in vivo; conditions: Compd1 (H) group, in special diet for eight weeks after induction, vs. DIO-NASH, FIGS. 10 and 11
# Procedure: as §2
# For a histological examination, the prepared C57BL/6J mouse model was subjected to autopsy to fix an isolated liver tissue in 10% formalin and prepare a paraffin block, thereby obtaining a 2 μm-thick tissue section. […]
# [10] = test system: C57BL/6J mouse with induced non-alcoholic steatohepatitis; assay: AST and ALT measurement in blood, C57BL/6J DIO-NASH mouse model; type: in vivo; conditions: C57BL/6J DIO-NASH_Compd1, compound in special diet for eight weeks, plasma, vs. DIO-NASH; FIG. 15
# Procedure: as §2
# Each of the mouse groups was subjected to autopsy, after which plasma was separated therefrom, so as to quantity aspartate aminotransferase (AST) and alanine aminotransferase (ALT) by using an automatic blood analyzer (Konelab 20i).
# human monocytes (THP-1) = assay: Effect on differentiation of human monocytes into macrophages (IL-1β secretion, ELISA); type: cell-based; conditions: THP-1 co-treated with compound during PMA (50 ng/ml) differentiation for 48 hours, then LPS (0.5 ng/ml) for four hours; FIG. 8
# Procedure: as §3
compound,measurement,setting,value
"CCc1cnc(N2CCC(CCCOc3cc(F)c(-c4noc(C(C)C)n4)c(F)c3)CC2)nc1 [compound 1, 3-(4-(3-(1-(5-ethylpyrimidin-2-yl)piperidin-4-yl)propoxy)-2,6-difluorophenyl)-5-isopropyl-1,2,4-oxadiazole]",ALT level in blood,[1],significant inhibition of increase
same,AST level in blood,[1],significant inhibition of increase
same,infiltration of inflammatory cells in liver tissues,[2]; FIGS. 1 and 2,significantly inhibited
same,fibrosis of liver tissues,[2]; FIGS. 2 and 3,significantly inhibited
same,cross-linking formation in fibers of the liver tissues,[3],remarkable decrease
same,type I collagen in liver tissues,[3],significant decrease
same,protein level of Ccl2 (=Mcp1) in liver tissues,[4],significantly inhibited
same,protein level of Timp1 in liver tissues,[4],significantly inhibited
same,"increase in expression of fibrosis-related genes (Tgfb1, Col1a, Timp1, Timp2, Acta2) in liver tissues",[5],significantly inhibited
same,"increase in expression of inflammation-related genes (Ccl2, Lgals3, Tnfa) in liver tissues",[5],significantly inhibited
same,expression of fibrosis markers in liver tissues,[6],remarkable decrease
same,expression of macrophage markers in liver tissues,[6],remarkable decrease
same,expression of monocyte attractants in liver tissues,[6],remarkable decrease
same,"worsening of disease by NAFLD activity score (NAS), before vs. after administration","[7]; C57BL/6J DIO-NASH, disease worsened in 50% of the DIO-NASH group",no individual was deteriorated
same,share of group in which the disease was ameliorated by NAFLD activity score (NAS),[7]; C57BL/6J DIO-NASH_Compd1 group,about 50%
same,IL-1β secretion caused by activation of macrophages,[8],decreased in a concentration-dependent manner
same,fat deposits in liver tissues,[9],significant decrease
same,infiltration of inflammatory cells in liver tissues,[9],significant decrease
same,concentration of ALT in blood,[10],significantly inhibited increase
same,concentration of AST in blood,[10],significantly inhibited increase
same,IL-1β secretion caused by activation of macrophages,human monocytes (THP-1),decreased in a concentration-dependent manner

# Source: patent US12115159B2, “Pharmaceutical composition for preventing or treating nonalcoholic fatty liver disease, containing GPR119 ligand as active ingredient” (DONG-A ST CO., LTD., priority 2018, dated 2024)
